Laboratory results: US20120046308A1, “NOVEL ALPHA-PHENOXYBENZENEACETIC ACID DERIVATIVE AND PHARMACEUTICAL PREPARATION COMPRISING SAME” (KOWA COMPANY, LTD., priority 2009, published 2012)

Tests used:
human PPARγ2 = target: T1, human PPARγ2 (Homo sapiens, UniProt P37231); test: PPARγ activation activity, Gal4-PPARγ2 LBD luciferase transfection assay using COS7 cells; format: cell-based; details: for EC50: COS7 cells, 16 hours, luciferase activity relative to rosiglitazone = 100%, read-out: EC50; for Emax: COS-7, 16 h, maximum activity strength relative to the maximum activity of rosiglitazone, read-out: % MAX vs Rosiglitazone
T1 construct: the amino acids 182 to 505 of human PPARγ2; expressed in transfected cells; host or cells: COS7 cells (African green monkey kidney)
T1 sequence (P37231 182-505): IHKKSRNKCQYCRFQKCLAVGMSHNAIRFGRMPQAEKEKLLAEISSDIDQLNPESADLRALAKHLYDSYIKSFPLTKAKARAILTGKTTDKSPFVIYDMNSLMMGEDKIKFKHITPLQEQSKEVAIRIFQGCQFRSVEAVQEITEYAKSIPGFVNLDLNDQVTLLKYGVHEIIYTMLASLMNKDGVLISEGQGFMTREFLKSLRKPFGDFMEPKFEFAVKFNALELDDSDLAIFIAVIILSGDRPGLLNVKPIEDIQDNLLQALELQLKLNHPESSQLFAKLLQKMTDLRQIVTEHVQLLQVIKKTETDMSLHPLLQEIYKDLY
Method: The agonistic activity of the compounds of the invention on PPARγ was measured based on the transfection assay using COS7 cells (DS Pharma Biomedical Co., Ltd., Osaka, Japan), which are the cell line derived from the kidney of the African green monkey. COS7 cells were cultured under 5% CO2 concentration, and DMEM medium containing 10% fetal bovine serum, glutamic acid, and antibiotics was used as a medium.
As an expression vector, a chimera in which DNA binding domain of Gal4, which is a yeast transcription factor, and ligand binding domain of human PPARγ2 are fused, i.e., a fused product between the amino acids 1 to 147 of Gal4 transcription factor and the amino acids 182 to 505 of human PPARγ2, was used. Furthermore, as a reporter vector, a firefly luciferase containing five copies of Gal4 recognition sequence in the promoter region was used. Plasmid transfection to the cells was performed according to a method which uses jetPEI (trade name, manufactured by Funakoshi Co., Ltd., Tokyo, Japan). Furthermore, β-galactosidase expression vector was employed as an internal standard.
After the transfection of the cells, the medium was replaced with a DMEM medium (containing 1% serum) added with the compound, and the cells were further cultured for 16 hours. After that, the luciferase activity and β-galactosidase activity in the cell lysis solution were measured.
For the present test, dimethyl sulfoxide (DMSO) was used for dissolution and dilution of the test compounds, and during the cell treatment, the DMSO concentration in DMEM medium (containing 1% serum) was adjusted to 0.1%. As a positive compound, rosiglitazone (trade name, manufactured by ALEXIS Corporation, Switzerland) was used. The luciferase activity (%) of the test compounds (1 to 30 μmol/L) was calculated when the luciferase activity of rosiglitazone (3 to 10 μmol/L) is 100% and the luciferase activity in the absence of the test compound is 0%. The 50% effective concentration of the test compound (EC50, 50% effect concentration) was calculated by using SAS Preclinical Package Ver5.0 (trade name, manufactured by SAS institute Japan Co., Tokyo, Japan), which is a statistical analysis program.

[1] = target: T2, angiotensin II type 1 receptor (Oryctolagus cuniculus, UniProt P34976); test: Angiotensin II antagonistic activity in isolated rabbit blood vessels (thoracic aorta ring contraction); details: angiotensin II (10 nM)-induced contraction
T2 construct: By using a specimen of isolated rabbit blood vessels; from tissue; host or cells: rabbit (New Zealand White) thoracic aorta ring
T2 sequence (P34976 1-359): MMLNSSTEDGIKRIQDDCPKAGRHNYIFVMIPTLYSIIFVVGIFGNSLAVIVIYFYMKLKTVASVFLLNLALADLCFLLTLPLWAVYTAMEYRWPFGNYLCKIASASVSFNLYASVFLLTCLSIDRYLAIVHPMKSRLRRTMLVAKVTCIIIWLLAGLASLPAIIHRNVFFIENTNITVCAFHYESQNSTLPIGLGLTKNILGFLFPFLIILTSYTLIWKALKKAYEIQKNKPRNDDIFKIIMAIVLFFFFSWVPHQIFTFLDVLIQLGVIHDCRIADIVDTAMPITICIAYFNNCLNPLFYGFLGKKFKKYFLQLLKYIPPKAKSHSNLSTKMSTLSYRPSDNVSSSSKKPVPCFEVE
Method: By using a specimen of isolated rabbit blood vessels, antagonistic activity of the compounds of the invention against angiotensin II type 1 receptor was estimated from a dose-response curve of angiotensin II-induced blood vessel contraction.
During the measurement, the inside temperature of the magnus bath was maintained at 37° C. and the bath was continuously ventilated with a sufficient amount of mixed gas (95% O2 and 5% CO2). The angiotensin II-induced contraction was converted into a relative value (%) that is based on the angiotensin II (10 nM)-induced contraction in the absence of the compounds of each example. From the concentration-response curve obtained therefrom, 50% inhibition concentration (IC50 value) was calculated by using SAS Preclinical Package Ver5.0 (trade name, manufactured by SAS institute Japan Co., Tokyo, Japan), which is a statistical analysis program.

| Compound | EC50 (human PPARγ2) [nM] | Emax (human PPARγ2) [%] | IC50 [1] [nM] |
| --- | --- | --- | --- |
| CCCCc1nc(C)n(-c2ncc(OC)cn2)c(=O)c1Cc1cc(CCC)c(OC(C(=O)O)c2ccc(Cl)cc2)c(CCC)c1 (stereo not drawn) [Example 18, 2-[4-[{4-butyl-1-(5-methoxypyrimidin-2-yl)-2-methyl-6-oxo-1,6-dihydropyrimidin-5-yl}methyl]-2,6-dipropylphenoxy]-2-(4-chlorophenyl)acetic acid] | 1400 | 49.1 | – |
| CCCc1cc(Cc2c(CC)nc(C)n(-c3ccccn3)c2=O)cc(CCC)c1OC(C(=O)O)c1ccccc1 (stereo not drawn) [Example 3] | 3520 | – | – |
| CCCCc1nc(C)n(-c2ccccn2)c(=O)c1Cc1cc(CCC)c(OC(c2ccccc2)c2nnn[nH]2)c(CCC)c1 (stereo not drawn) [Example 4, 6-butyl-2-methyl-5-[4-{phenyl(1H-tetrazol-5-yl)methoxy}-3,5-dipropylbenzyl]-3-(pyridin-2-yl)pyrimidin-4(3H)-one] | 1720 | – | – |
| CCCCc1nc(C)n(-c2ccccn2)c(=O)c1Cc1cc(CCC)c(OC(C(=O)NS(C)(=O)=O)c2ccccc2)c(CCC)c1 (stereo not drawn) [Example 6, 2-[4-[{4-butyl-2-methyl-6-oxo-1-(pyridin-2-yl)-1,6-dihydropyrimidin-5-yl}methyl]-2,6-dipropylphenoxy]-N-(methylsulfonyl)-2-phenyl acetoamide] | 3190 | – | – |
| CCCCc1nc(C)n(-c2ccccn2)c(=O)c1Cc1cc(CCC)c(OC(C(=O)O)c2ccccc2Cl)c(CCC)c1 (stereo not drawn) [Example 7] | 3460 | 23.3 | – |
| CCCCc1nc(C)n(-c2ccccn2)c(=O)c1Cc1cc(CCC)c(OC(C(=O)O)c2ccccc2OC)c(CCC)c1 (stereo not drawn) [Example 10, 2-[4-[{4-butyl-2-methyl-6-oxo-1-(pyridin-2-yl)-1,6-dihydropyrimidin-5-yl}methyl]-2,6-dipropylphenoxy]-2-(2-methoxyphenyl)acetic acid] | 3290 | 25.6 | – |
| CCCCc1nc(C)n(-c2ccccn2)c(=O)c1Cc1cc(CCC)c(OC(c2ccccc2)c2noc(=O)[nH]2)c(CCC)c1 (stereo not drawn) [Example 5, 3-[[4-[{4-butyl-2-methyl-6-oxo-1-(pyridin-2-yl)-1,6-dihydropyrimidin-5-yl}methyl]-2,6-dipropylphenoxy](phenyl)methyl]-1,2,4-oxadiazol-5(4H)-one] | 1190 | 35.1 | – |
| CCCCc1nc(C)n(-c2ccccn2)c(=O)c1Cc1cc(CCC)c(OC(C(=O)O)c2cccc(Cl)c2)c(CCC)c1 (stereo not drawn) [Example 8, 2-[4-[{4-butyl-2-methyl-6-oxo-1-(pyridin-2-yl)-1,6-dihydropyrimidin-5-yl}methyl]-2,6-dipropylphenoxy]-2-(3-chlorophenyl)acetic acid] | 2020 | 41.4 | – |
| CCCc1cc(Cc2c(CCC)nc(C)n(-c3ccccn3)c2=O)cc(CCC)c1OC(C(=O)O)c1ccccc1 (stereo not drawn) [Example 2, 2-[4-[{2-methyl-6-oxo-4-propyl-1-(pyridin-2-yl)-1,6-dihydropyrimidin-5-yl}methyl]-2,6-dipropylphenoxy]-2-phenylacetic acid] | 3910 | 25.2 | – |
| CCCCc1nc(C)n(-c2ccccn2)c(=O)c1Cc1cc(CCC)c(OC(c2nnn[nH]2)c2ccccc2Cl)c(CCC)c1 (stereo not drawn) [Example 11, 6-butyl-5-[4-{(2-chlorophenyl)(1H-tetrazol-5-yl)methoxy}-3,5-dipropylbenzyl]-2-methyl-3-(pyridin-2-yl)pyrimidin-4(3H)-one] | 2630 | – | – |
| CCCCc1nc(C)n(-c2ncc(OC)cn2)c(=O)c1Cc1cc(CCC)c(OC(C(=O)O)c2ccccc2)c(CCC)c1 (single isomer, unassigned; (+)) [Example 17, (+)-2-[4-[{4-butyl-1-(5-methoxypyrimidin-2-yl)-2-methyl-6-oxo-1,6-dihydropyrimidin-5-yl}methyl]-2,6-dipropylphenoxy]-2-phenylacetic acid] | 3710 | – | – |
| CCCCc1nc(C)n(-c2ccc(OCC)cc2)c(=O)c1Cc1cc(CCC)c(OC(C(=O)O)c2ccccc2)c(CCC)c1 (stereo not drawn) [Example 13] | 480 | 42.9 | – |

Results, then the compound that gave them:

| EC50 (human PPARγ2) [nM] | Emax (human PPARγ2) [%] | IC50 [1] [nM] | Compound |
| --- | --- | --- | --- |
| 650 | 49.9 | – | CCCCc1nc(C)n(-c2ncc(OCc3ccccc3)cn2)c(=O)c1Cc1cc(CCC)c(OC(C(=O)O)c2ccccc2)c(CCC)c1 (stereo not drawn) [Example 19, 2-[4-[[1-[5-(benzyloxy)pyrimidin-2-yl]-4-butyl-2-methyl-6-oxo-1,6-dihydropyrimidin-5-yl]methyl]-2,6-dipropylphenoxy]-2-phenylacetic acid] |
| 2400 | – | – | CCCCc1nc(C)nc(OCCOC)c1Cc1cc(CCC)c(OC(C(=O)O)c2ccccc2)c(CCC)c1 (stereo not drawn) [Example 32, 2-[4-[{4-butyl-6-(2-methoxyethoxy)-2-methylpyrimidin-5-yl}methyl]-2,6-dipropylphenoxy]-2-phenylacetic acid] |
| 850 | 21.3 | 724 | CCCCc1nc(C)n(Cc2ccccc2)c(=O)c1Cc1cc(CCC)c(OC(C(=O)O)c2ccccc2)c(CCC)c1 (stereo not drawn) [Example 28, 2-[4-{(1-benzyl-4-butyl-2-methyl-6-oxo-1,6-dihydropyrimidin-5-yl)methyl}-2,6-dipropylphenoxy]-2-phenylacetic acid] |
| – | – | 468 | CCCCc1nc(C)n(-c2ncc(O)cn2)c(=O)c1Cc1cc(CCC)c(OC(C(=O)O)c2ccccc2)c(CCC)c1 (stereo not drawn) [Example 27, 2-[4-[{4-butyl-1-(5-hydroxypyrimidin-2-yl)-2-methyl-6-oxo-1,6-dihydropyrimidin-5-yl}methyl]-2,6-dipropylphenoxy]-2-phe nylacetic acid] |
| 2490 | – | – | CCCCc1nc(C)nc(OCc2ccccc2)c1Cc1cc(CCC)c(OC(C(=O)O)c2ccccc2)c(CCC)c1 (stereo not drawn) [Example 29] |
| – | – | 76 | CCCCc1nc(C)n(-c2ncc(OCC[S+](C)[O-])cn2)c(=O)c1Cc1cc(CCC)c(OC(C(=O)O)c2ccccc2)c(CCC)c1 (stereo not drawn) [Example 25] |
| 1340 | 39.8 | – | CCCCc1nc(C)n(-c2ncc(OCCSC)cn2)c(=O)c1Cc1cc(CCC)c(OC(C(=O)O)c2ccccc2)c(CCC)c1 (stereo not drawn) [Example 24, 2-[4-[[4-butyl-2-methyl-1-[5-{2-(methylthio)ethoxy}pyrimidin-2-yl]-6-oxo-1,6-dihydropyrimidin-5-yl]methyl]-2,6-dipropylphenoxy]-2-phenylacetic acid] |
| – | – | 353 | CCCCc1nc(C)n(-c2ncc(OCCS(C)(=O)=O)cn2)c(=O)c1Cc1cc(CCC)c(OC(C(=O)O)c2ccccc2)c(CCC)c1 (stereo not drawn) [Example 26, 2-[4-[[4-butyl-2-methyl-1-[5-{2-(methylsulfonyl)ethoxy}pyrimidin-2-yl]-6-oxo-1,6-dihydropyrimidin-5-yl]methyl]-2,6-dipropylphenoxy]-2-phenylacetic acid] |
| 1210 | – | – | CCCCc1nc(CCc2ccc(CC)cn2)[nH]c(=O)c1Cc1cc(CCC)c(OC(C(=O)O)c2ccccc2)c(CCC)c1 (stereo not drawn) [Example 31] |
| – | – | 67 | CCCCc1nc(C)n(-c2ncc(OCCCC(N)=O)cn2)c(=O)c1Cc1cc(CCC)c(OC(C(=O)O)c2ccccc2)c(CCC)c1 (stereo not drawn) [Example 23] |
